According to the supplement of paper PMC10307832:

Legend:
Experiment in all cases: relative viability (nuclei count vs DMSO), 5 days (fraction); higher = more cells survive
[1] = compound: C1=CC=C(C(=C1)C2=CC=C(C=C2)C3=CSC4=C3C(=C(C(=O)N4)C#N)O)O + CC(C)C[C@H](NC(=O)[C@H](Cc1ccccc1)NC(=O)c1cnccn1)B(O)O [Bortezomib] (partner 0.002 µM)
Outline: (§1)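 Relative viability was taken as the ratio of nuclei in treated wells to nuclei in vehicle wells. Lung cancer cell lines in 1536-well plates received compounds by pin tool one day after seeding, either one drug alone or a fixed anchor-drug dose plus five library-drug doses (not always all listed) in √10 steps. Nuclei were counted on 4× images after 5 days of treatment, and values are medians of duplicate plates.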

[2] = compound: C1=CC=C(C(=C1)C2=CC=C(C=C2)C3=CSC4=C3C(=C(C(=O)N4)C#N)O)O + C[C@]1(O)C[C@@H](c2nc(-c3ccc4ccc(-c5ccccc5)nc4c3)c3c(N)nccn32)C1 [Linsitinib] (partner 1 µM)
Outline: as §1

[3] = compound: C1=CC=C(C(=C1)C2=CC=C(C=C2)C3=CSC4=C3C(=C(C(=O)N4)C#N)O)O + N=C(N)NC(=N)NCCc1ccccc1 [Phenformin] (partner 250 µM)
Outline: as §1

Ricolinostat + Dasatinib = compound: O=C(CCCCCCNC(=O)c1cnc(N(c2ccccc2)c2ccccc2)nc1)NO [Ricolinostat] + Cc1nc(Nc2ncc(C(=O)Nc3c(C)cccc3Cl)s2)cc(N2CCN(CCO)CC2)n1 [Dasatinib] (partner 0.075 µM)
Outline: as §1

Row | Cell Line | relative viability ([1]; first compound 0.08 µM) | relative viability ([1]; first compound 0.253 µM) | relative viability ([1]; first compound 0.8 µM) | relative viability ([1]; first compound 2.53 µM) | relative viability ([1]; first compound 8 µM) | relative viability ([2]; first compound 0.08 µM) | relative viability ([2]; first compound 0.253 µM) | relative viability ([2]; first compound 0.8 µM) | relative viability ([2]; first compound 2.53 µM) | relative viability ([2]; first compound 8 µM) | relative viability ([3]; first compound 0.08 µM) | relative viability ([3]; first compound 0.253 µM) | relative viability ([3]; first compound 0.8 µM) | relative viability ([3]; first compound 2.53 µM) | relative viability ([3]; first compound 8 µM) | relative viability (Ricolinostat + Dasatinib; first compound 0.08 µM) | relative viability (Ricolinostat + Dasatinib; first compound 0.253 µM) | relative viability (Ricolinostat + Dasatinib; first compound 0.8 µM) | relative viability (Ricolinostat + Dasatinib; first compound 2.53 µM)
1 | 201T | 1.09 | 1.13 | 1.14 | 1.09 | 1.13 | 1.09 | 1.06 | 1.03 | 1.02 | 1.1 | 0.335 | 0.451 | 0.46 | 0.462 | 0.434 | 0.471 | 0.571 | 0.603 | 0.498
2 | A549 |  |  |  |  |  | 0.635 | 0.606 | 0.509 | 0.521 | 0.393 | 0.124 | 0.184 | 0.123 | 0.192 | 0.238 |  |  |  | 
3 | A-427 | 0.963 | 1.05 | 1.02 | 1.03 | 1.06 | 1.09 | 1.12 | 1.11 | 1.15 | 1.18 | 0.234 | 0.313 | 0.315 | 0.328 | 0.31 |  | 0.621 | 0.583 | 0.471
4 | ABC-1 | 0.281 | 0.326 | 0.326 | 0.364 | 0.324 | 0.926 | 0.906 | 0.856 | 0.875 | 0.735 | 0.241 | 0.274 | 0.241 | 0.259 | 0.239 | 0.556 | 0.632 | 0.563 | 0.489
5 | BEN | 0.578 | 0.789 | 0.944 | 0.892 | 0.676 | 0.609 | 0.999 | 0.93 | 1.21 | 0.822 | 0.282 | 0.289 | 0.265 | 0.278 | 0.274 | 0.269 | 0.322 | 0.279 | 0.213
6 | CAL-12T |  | 0.898 | 0.911 | 0.936 | 0.804 | 0.636 | 1.12 | 0.762 | 0.907 | 0.787 | 0.566 | 0.668 | 0.593 | 0.575 | 0.547 | 0.422 | 0.417 | 0.48 | 0.664
7 | COR-L23 | 0.864 | 0.703 | 1.11 | 1.09 | 0.496 | 0.703 | 0.816 | 1.02 | 0.99 | 0.747 | 0.383 | 0.467 | 0.464 | 0.467 | 0.372 | 0.373 | 0.477 | 0.471 | 0.242
8 | COR-L 105 | 0.767 | 0.78 | 0.819 | 0.779 | 0.58 | 0.964 | 0.781 | 0.924 | 0.957 | 0.953 | 0.47 | 0.649 | 0.348 | 0.401 | 0.402 |  | 0.368 | 0.397 | 0.401
9 | Calu-6 | 1.18 | 1.14 | 1.26 | 1.06 | 0.971 | 0.95 | 1.1 | 1.06 | 1.01 | 0.786 |  |  |  |  |  |  |  |  | 
10 | ChaGo-K-1 | 0.658 | 0.955 | 0.957 | 1.21 | 0.954 |  |  |  |  |  | 0.448 | 0.523 | 0.519 | 0.483 | 0.407 | 0.579 | 0.49 | 0.584 | 0.532
11 | EBC-1 | 0.629 | 0.435 | 0.489 | 0.598 | 0.509 | 0.784 | 1.16 | 0.642 | 0.925 | 0.781 |  |  |  |  |  |  |  |  | 
12 | EKVX | 0.879 | 0.998 | 1.03 | 1.02 | 0.917 | 0.751 | 1.28 | 0.883 | 1.1 | 0.779 | 0.226 | 0.259 | 0.233 | 0.221 | 0.216 | 0.471 | 0.658 | 0.577 | 0.606
13 | EMC-BAC-2 | 0.995 | 1.25 | 1.15 | 1.05 | 0.957 | 0.759 | 0.853 | 0.837 | 0.811 | 0.77 | 0.38 | 0.563 | 0.492 | 0.533 | 0.43 | 0.316 | 0.291 | 0.27 | 0.242
14 | EPLC-272H |  | 0.973 | 0.852 | 0.858 | 0.652 |  | 1.46 | 1.23 | 1.24 | 0.888 | 0.219 | 0.254 | 0.398 | 0.327 | 0.248 | 0.308 | 0.387 | 0.336 | 0.212
15 | H3255 | 0.79 | 0.802 | 0.646 | 0.789 | 0.686 | 0.912 | 1.06 | 0.854 | 0.967 | 0.78 | 0.326 | 0.39 | 0.377 | 0.347 | 0.362 | 0.347 | 0.308 | 0.318 | 0.308
16 | HARA |  |  | 1.25 | 1.03 | 1.13 |  | 1.68 | 0.998 | 1.07 | 0.774 | 0.323 | 0.542 | 0.433 | 0.431 | 0.425 | 0.271 | 0.224 | 0.217 | 0.192
17 | HCC-15 | 0.816 | 1.14 | 1.02 | 1.16 | 1.14 | 0.914 | 0.844 | 0.985 | 0.918 | 0.871 | 0.407 | 0.516 | 0.496 | 0.494 | 0.387 | 0.537 | 0.665 | 0.642 | 0.653
18 | HCC-44 | 0.899 | 0.918 | 0.909 | 0.92 | 0.976 | 0.587 | 0.84 | 0.66 | 0.715 | 0.58 | 0.166 | 0.164 | 0.138 | 0.21 | 0.208 |  |  |  | 
19 | HCC-78 | 0.529 | 0.771 | 0.536 | 0.417 | 0.428 | 0.534 | 0.73 | 0.551 | 0.484 | 0.462 | 0.608 | 0.872 | 0.64 | 0.609 | 0.568 |  | 0.438 | 0.356 | 0.281
